# US10077243B2, “Compounds for treating disorders mediated by metabotropic glutamate receptor 5, and methods of use thereof” (Sunovion Pharmaceuticals Inc., priority 2009, dated 2018)
# Biological target: T1, human mGluR5 (Homo sapiens, UniProt P41594)
# T1 construct: expressed in transfected cells; host or cells: HEK293 cells stably expressing rat GLAST (EAAT1), stably transfected with pcDNAzeo3.1 carrying synthetic human mGluR5 DNA; zeocin-selected single clones
# Test: In vitro cell-based FLIPR calcium assay for positive modulation of the activation of mGluR5 by glutamate (PAM EC50)
# Settings: HEK293/GLAST cells expressing recombinant human mGluR5; FLIPR calcium signal; glutamate added at its EC20; read-out: mGluR5 PAM EC50
# Source text: The DNA sequences encoding the structural regions for rat mGluR5 [Abe T, Sugihara H, Nawa H, Shigemoto R, Mizuno N, Nakanishi S (1992) “Molecular characterization of a novel metabotropic glutamate receptor mGluR5 coupled to inositol phosphate/Ca^2+ signal transduction” Journal of Biological Chemistry vol. 267, no. 19, pp. 13361-8] and human mGluR5 [Daggett L P, Sacaan A I, Akong M, Rao S P, Hess S D, Liaw C, Urrutia A, Jachec C, Ellis S B, Dreessen J, Knöpfel T, Landwehrmeyer G B, Testa C M, Young A B, Varney M, Johnson E C, Veliçelebi (1995) “Molecular and functional characterization of recombinant human metabotropic glutamate receptor subtype 5” Neuropharmacology vol. 34, no. […] 53, no. 3, pp. 355-369] was obtained from Dr. Michael Robinson of the Children's Hospital of Philadelphia under a Material Transfer Agreement. The pcDNAzeo3.1 vector DNA, carrying either rat mGluR5 or human mGluR5, was used to transfect a sample of the HEK293/GLAST cells, and single clones that express mGluR5 were isolated from the transfected cells using zeocin selection. Expression of mGluR5 was assessed by measurement of the transient fluorescence signal elicited from HEK293/GLAST/mGluR5 cells by glutamate following the loading of the cells with a calcium-sensitive dye using a FLIPR Tetra (Fluorometric Imaging Plate Reader) (Molecular Devices, Sunnyvale, Calif.) [O'Brien J A, Lemaire W, Chen T B, Chang R S, Jacobson M A, Ha S N, Lindsley C W, Schaffhauser H J, Sur C, Pettibone D J, Conn P J, Williams D L Jr. […] 64, no. 3, pp. 731-740; Assay Guidance Manual Version 5.0, 2008, Eli Lilly and Company and NIH Chemical Genomics Center; available online HEK293/GLAST/mGluR5 cells were grown in Dulbecco's Modified Eagle Medium (DMEM) supplemented with 10% dialyzed fetal bovine serum, 20 millimolar (mM) N-2-hydroxyethylpiperazine-N′-2-ethanesulfonic acid (HEPES), penicillin, streptomycin, 1% GlutaMax™ (Invitrogen) and 50 μg/ml zeocin. Cells were grown in the media to 70-80% confluency at 37° C. under 5% CO2, 95% humidity in poly-D-lysine coated coated flasks. Cells for assays were plated into 96-well sterile standard microtiter plates (pre-coated with poly-D-lysine) at a density of 50,000 cells per well in 0.2 milliliters of media. Plated cells were allowed to settle and adhere for 30 minutes at ambient conditions, and then were incubated overnight at 37° C. under 5% CO2, 95% humidity. Several such 96-well plates were typically prepared. On the day of the assays, the components of the FLIPR calcium 4 assay kit (Molecular Devices) were dissolved according to the instructions of the dye kit's manufacturer in assay buffer (Hank's balanced salt solution (HBSS) (Gibco) supplemented with 20 mM HEPES). After removal of the growth media from the first plate, cells were loaded with calcium dye by addition of calcium dye solution (50 microliters per well) and incubation at 25° C. for 45 to 60 minutes. The first plate was placed into the FLIPR Tetra, and a dilution series of glutamate solutions in assay buffer were added to wells on the plate, followed by acquisition of fluorescence data for several minutes. The fluorescence data (maximal signal as a 4-parameter sigmoidal function of log [glutamate]) were processed by non-linear regression methods using the software package GraphPad Prism 5.01 (GraphPad Software Inc.), to yield a glutamate concentration-response curve (CRC). […] These values were, respectively, the concentrations of glutamate that elicit 20%, 50%, and 80% of the maximal FLIPR signal (observed at saturating [glutamate]). The method for measuring the concentration response of a potentiator, or positive allosteric modulator (PAM), is described here as an example. For that purpose, subsequent assays were typically performed using assay buffer containing a glutamate concentration equal to that day's EC20. […] Addition to certain wells of the same buffer containing 0.3% DMSO, but without any test compound, provided a negative control.
# T1 sequence (P41594 21-1212): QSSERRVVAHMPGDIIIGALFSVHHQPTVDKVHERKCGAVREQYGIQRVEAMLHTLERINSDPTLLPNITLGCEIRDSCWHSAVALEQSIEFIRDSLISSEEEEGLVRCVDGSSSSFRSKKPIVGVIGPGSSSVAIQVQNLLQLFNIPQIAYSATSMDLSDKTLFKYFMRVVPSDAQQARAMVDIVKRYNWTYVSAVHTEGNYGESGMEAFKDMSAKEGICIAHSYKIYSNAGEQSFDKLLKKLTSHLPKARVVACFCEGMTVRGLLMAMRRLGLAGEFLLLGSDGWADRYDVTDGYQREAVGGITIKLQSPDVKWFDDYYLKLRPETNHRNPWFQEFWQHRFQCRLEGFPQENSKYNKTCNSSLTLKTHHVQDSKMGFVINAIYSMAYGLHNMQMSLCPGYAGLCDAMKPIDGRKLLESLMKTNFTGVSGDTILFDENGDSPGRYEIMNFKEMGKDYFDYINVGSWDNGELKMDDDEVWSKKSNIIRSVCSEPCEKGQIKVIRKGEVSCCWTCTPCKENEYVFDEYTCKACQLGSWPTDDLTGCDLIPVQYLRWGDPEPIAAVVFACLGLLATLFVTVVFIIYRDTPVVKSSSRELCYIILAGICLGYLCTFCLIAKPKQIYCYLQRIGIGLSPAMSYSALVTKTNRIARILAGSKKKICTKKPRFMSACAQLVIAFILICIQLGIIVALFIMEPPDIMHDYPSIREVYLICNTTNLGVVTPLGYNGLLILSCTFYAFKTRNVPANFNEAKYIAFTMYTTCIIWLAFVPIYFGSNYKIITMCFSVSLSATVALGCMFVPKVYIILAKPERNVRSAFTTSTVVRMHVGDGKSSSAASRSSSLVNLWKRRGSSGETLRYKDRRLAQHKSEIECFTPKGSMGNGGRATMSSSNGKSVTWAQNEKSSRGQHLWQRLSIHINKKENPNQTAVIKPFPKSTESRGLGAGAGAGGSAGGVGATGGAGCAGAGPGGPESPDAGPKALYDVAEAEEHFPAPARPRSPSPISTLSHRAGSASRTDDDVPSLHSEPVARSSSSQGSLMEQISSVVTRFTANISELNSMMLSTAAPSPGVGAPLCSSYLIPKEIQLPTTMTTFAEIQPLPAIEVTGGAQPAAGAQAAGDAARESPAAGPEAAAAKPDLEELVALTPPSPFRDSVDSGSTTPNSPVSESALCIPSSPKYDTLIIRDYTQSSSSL
row,EC50 [nM],SMILES
1,300 to 1000,"O=C(Nc1ccc2c(=O)n3c(nc2c1)CCCCCC3)c1ccc(F)cc1 [Example 24.1, 4-fluoro-N-(13-oxo-7,8,9,10,11,13-hexahydro-6H-azocino[2,1-b]quinazolin-3-yl)benzamide]"
2,30 to 100,"CN1CCCc2nc3cc(C#Cc4ccc(F)cc4)ccc3c(=O)n2CC1 [Example 10.2, 9-((4-fluorophenyl)ethynyl)-3-methyl-3,4,5,6-tetrahydro-1H-[1,4]diazocino[8,1-b]quinazolin-12(2H)-one]"
3,100 to 300,"CC1CCc2nc3cc(/C=C/c4ccccn4)ccc3c(=O)n2CC1 (stereo not drawn) [Example 20.3, (E)-8-methyl-3-(2-(pyridin-2-yl)vinyl)-7,8,9,10-tetrahydroazepino[2,1-b]quinazolin-12(6H)-one]"
4,30 to 100,"CCOCCc1cnc2cc(C#Cc3cccc(F)c3)ccn2c1=O [Example 13.13, 3-(2-ethoxyethyl)-8-((3-fluorophenyl)ethynyl)-4H-pyrido[1,2-a]pyrimidin-4-one]"
5,30 to 100,"CC1(C)CCc2nc3nc(C#Cc4ccccn4)ccc3c(=O)n2C1 [Example 12.3, 8,8-dimethyl-2-(pyridin-2-ylethynyl)-7,8,9,10-tetrahydro-5H-dipyrido[1,2-a:2′,3′-d]pyrimidin-5-one]"
6,30 to 100,"COCc1cnc2cc(C#Cc3cccc(F)c3)ccn2c1=O [Example 13.7, 8-((3-fluorophenyl)ethynyl)-3-(methoxymethyl)-4H-pyrido[1,2-a]pyrimidin-4-one]"
7,100 to 300,"CC(O)c1cnc2cc(C#Cc3cccc(F)c3)ccn2c1=O (stereo not drawn) [Example 13.1, 8-((3-fluorophenyl)ethynyl)-3-(1-hydroxyethyl)-4H-pyrido[1,2-a]pyrimidin-4-one]"
8,30 to 100,"O=c1c2ccc(C#Cc3ccccn3)cc2nc2n1CC1CCCN1CC2 (stereo not drawn) [Example 9.4, 9-(pyridin-2-ylethynyl)-2,3,5,6,14,14a-hexahydropyrrolo[2′,1′:3,4][1,4]diazepino[7,1-b]quinazolin-12(1H)-one]"
9,30 to 100,"CC1(C)CCn2c(nc3cc(/C=C/c4ccccc4F)ccc3c2=O)C1 [Example 20.6, (E)-3-(2-fluorostyryl)-7,7-dimethyl-8,9-dihydro-6H-pyrido[2,1-b]quinazolin-11(7H)-one]"

# The next lines start with the compound.
row,SMILES,EC50 [nM]
1,"CC(C#N)N1CCc2nc3cc(C#Cc4ccccn4)ccc3c(=O)n2CC1 (stereo not drawn) [Example 8.24, 2-(11-oxo-8-(pyridin-2-ylethynyl)-1,2,4,5-tetrahydro-[1,4]diazepino[7,1-b]quinazolin-3(11H)-yl)propanenitrile]",300 to 1000
2,"O=c1c2ccc(C#Cc3cccc(F)c3)cc2nc2n1CCN(CC1CCCO1)CC2 (stereo not drawn) [Example 8.16, 8-((3-fluorophenyl)ethynyl)-3-((tetrahydrofuran-2-yl)methyl)-2,3,4,5-tetrahydro-[1,4]diazepino[7,1-b]quinazolin-11(1H)-one]",100 to 300
3,O=c1c2ccc(C#Cc3ccc(F)nc3)cc2nc2n1CCC1(CC2)OCCO1 [Example 7.15],30 to 100
4,"CC1CCc2nc3cc(C#Cc4ccccn4)ccc3c(=O)n21 (stereo not drawn) [Example 3.14, 1-methyl-6-(pyridin-2-ylethynyl)-2,3-dihydropyrrolo[2,1-b]quinazolin-9(1H)-one]",100 to 300
5,"COC1(C)CCc2nc3cc(C#Cc4ccccn4)ccc3c(=O)n2CC1 (single isomer, unassigned) [Example 6.50a/6.50b slower moving enantiomer (fraction 2), 8-methoxy-8-methyl-3-(pyridin-2-ylethynyl)-7,8,9,10-tetrahydroazepino[2,1-b]quinazolin-12(6H)-one]",10 to 30
6,"C=C1CCc2nc3cc(C#Cc4cccc(F)c4)ccc3c(=O)n2CC1 [Example 6.22, 3-((3-fluorophenyl)ethynyl)-8-methylene-7,8,9,10-tetrahydroazepino[2,1-b]quinazolin-12(6H)-one]",< 10
7,"CC1(C)Cn2c(nc3cc(C#Cc4ccccn4)ccc3c2=O)CO1 [Example 4.40, 3,3-dimethyl-9-(pyridin-2-ylethynyl)-3,4-dihydro-[1,4]oxazino[3,4-b]quinazolin-6(1H)-one]",10 to 30
8,"O=c1c2ccc(C#Cc3ccccn3)cc2nc2n1CC1CC21 (stereo not drawn) [Example 4.27, 4-(pyridin-2-ylethynyl)-9,9a-dihydro-1H-cyclopropa[3,4]pyrrolo[2,1-b]quinazolin-7(1aH)-one]",30 to 100
9,"O=c1c2ccc(C#Cc3ccccn3)cc2nc2n1CC1(CCOCC1)C2 [Example 3.24, 6′-(pyridin-2-ylethynyl)-2,3,5,6-tetrahydro-1′H-spiro[pyran-4,2′-pyrrolo[2,1-b]quinazolin]-9′(3′H)-one]",10 to 30
10,"CC1CCn2c(nc3cc(C#Cc4ccccn4)ccc3c2=O)C1 (stereo not drawn) [Example 4.11, 7-methyl-3-(pyridin-2-ylethynyl)-8,9-dihydro-6H-pyrido[2,1-b]quinazolin-11(7H)-one]",30 to 100
11,"O=c1c2ccc(C#Cc3cccc(F)c3)cc2nc2n1CC1(CC2)OCCO1 [Example 4.21, 3′((3-fluorophenyl)ethynyl)-6′,7′-dihydrospiro[[1,3]dioxolane-2,8′-pyrido[2,1-b]quinazolin]-11′(9′H)-one]",10 to 30
12,"CCCn1cnc2cc(C#Cc3ccc(F)cc3)ccc2c1=O [Example 1.6, 7-((4-fluorophenyl)ethynyl)-3-propylquinazolin-4(3H)-one]",100 to 300
13,"CC1(C)CCCc2nc3cc(C#Cc4ccccn4)ccc3c(=O)n2C1 [Example 6.43, 9,9-dimethyl-3-(pyridin-2-ylethynyl)-7,8,9,10-tetrahydroazepino[2,1-b]quinazolin-12(6H)-one]",10 to 30
14,"COCC1CCc2nc3cc(C#Cc4ccccn4)ccc3c(=O)n2C1 (single isomer, unassigned) [4.34a/4.34b faster moving enantiomer (fraction 1), 8-(methoxymethyl)-3-(pyridin-2-ylethynyl)-8,9-dihydro-6H-pyrido[2,1-b]quinazolin-11(7H)-one]",30 to 100
15,"COC1CCc2nc3cc(C#Cc4cccc(F)c4)ccc3c(=O)n2C1 (stereo not drawn) [Example 4.25, 3-((3-fluorophenyl)ethynyl)-8-methoxy-8,9-dihydro-6H-pyrido[2,1-b]quinazolin-11(7H)-one]",< 10
16,O=c1c2ccc(C#Cc3ccccn3)cc2nc2n1C1CCN(CC1)C2 [Example 8.26],100 to 300
17,O=c1c2ccc(C#Cc3ccc(F)cc3)cc2nc2n1CCC1(CC2)OCCO1 [Example 7.3],30 to 100
18,"O=c1c2ccc(C#Cc3cccc(F)c3)cc2nc2n1CCC(O)CC2 (stereo not drawn) [Example 6.15, 3-((3-fluorophenyl)ethynyl)-8-hydroxy-7,8,9,10-tetrahydroazepino[2,1-b]quinazolin-12(6H)-one]",< 10
19,"O=c1c2ccc(C#Cc3ccccn3)cc2nc2n1CC1CCCCN1C2 (stereo not drawn) [Example 5.20, 3-(pyridin-2-ylethynyl)-8,9,10,11,11a,12-hexahydropyrido[1′,2′:4,5]pyrazino[2,1-b]quinazolin-14(6H)-one]",300 to 1000
20,"C=C1CCc2nc3cc(C#Cc4cccc(F)c4)ccc3c(=O)n2C1 [Example 4.28, 3-((3-fluorophenyl)ethynyl)-8-methylene-8,9-dihydro-6H-pyrido[2,1-b]quinazolin-11(7H)-one]",10 to 30
21,"O=c1c2c(nc3cc(C#Cc4ccc(F)cc4)ccn13)CCCCC2 [Example 16.1, 3-((4-fluorophenyl)ethynyl)-7,8,9,10-tetrahydrocyclohepta[d]pyrido[1,2-a]pyrimidin-11(6H)-one]",< 10
